Data on 18 compounds can be found in patent US6894050B2, “5-HT receptor ligands and uses thereof” (Pfizer Inc., priority 2001, dated 2005).

Structures are written as SMILES. Where a name gives a salt, the structure may show the parent alone.

As a reminder, the melting point is the temperature of the solid-liquid transition.

The target of data set [1] is T1, 5-HT2c receptor (5-HT2c expressed NIH 3T3 cells) (UniProt P28335).
T1 sequence (P28335 1-458): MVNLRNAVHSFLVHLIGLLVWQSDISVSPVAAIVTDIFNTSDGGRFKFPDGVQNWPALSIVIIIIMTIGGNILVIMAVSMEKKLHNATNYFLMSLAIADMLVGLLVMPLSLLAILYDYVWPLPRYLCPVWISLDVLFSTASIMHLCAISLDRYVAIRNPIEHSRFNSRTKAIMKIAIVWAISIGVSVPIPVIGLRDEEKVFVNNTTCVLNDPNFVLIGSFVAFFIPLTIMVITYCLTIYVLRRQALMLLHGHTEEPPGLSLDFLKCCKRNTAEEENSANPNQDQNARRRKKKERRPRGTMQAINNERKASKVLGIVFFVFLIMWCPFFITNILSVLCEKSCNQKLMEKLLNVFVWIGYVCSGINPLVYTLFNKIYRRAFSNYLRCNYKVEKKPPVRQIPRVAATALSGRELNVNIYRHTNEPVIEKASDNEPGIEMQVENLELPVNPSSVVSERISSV
Put plainly: Functional Assay (FLIPR calcium fluorescence, Fluo 4-AM). It counts as cell-based. As to the method: […] Forty eight (48) hrs later the cells were loaded with the calcium sensitive dye, Fluo 4-AM (4 μM dissolved in DMSO containing pluronic acid) in serum free DMEM in the presence of probenicid (2.5 mM) for 75 minutes at 37° C. in a CO2 incubator. Unincorporated dye was removed by washing 3 times with a HEPES-buffered saline containing probenicid (2.5 mM) using a Skatron™ cell washer (final volume 30 μL).
Test compound additions were made simultaneously to all 384 wells after 20 seconds of baseline recording. Concentration-response curves were generated using Graphpad Prism™ (available from GraphPad Software, Inc., San Diego, Calif.) and agonist efficacies were generated as % of the response to 10 μM 5-HT (considered as 100%).

Data set [2] concerns anaesthetised rabbit model of sexual arousal. Put plainly: Pelvic nerve-stimulated genital blood flow in the anaesthetised rabbit model of sexual arousal. It counts as in vivo. Particulars: 5 mg/kg s.c.; for Compound-induced potentiation of stimulated vaginal blood flow: %. How it is done:
Female New Zealand rabbits (˜2.5 kg) were pre-medicated with a combination of Medetomidine (Domitor®) 0.5 ml/kg intramuscularly (i.m.), and Ketamine (Vetalar®) 0.25 ml/kg i.m. whilst maintaining oxygen intake via a face mask. The rabbits were tracheotomised using a Portex™ uncuffed endotracheal tube 3 ID (internal diameter), connected to ventilator and maintained at a ventilation rate of 30-40 breaths per minute, with an approximate tidal volume of 18-20 ml, and a maximum airway pressure of 10 cm H2O. Anaesthesia was then switched to Isoflurane® and ventilation continued with O2 at 2 l/min. The right marginal ear vein was cannulated using a 23G or 24G catheter, and Lactated Ringer solution perfused at 0.5 ml/min. The rabbit was maintained at 3% Isoflurane® during invasive surgery, dropping to 2% for maintenance anaesthesia.
The left groin area of the rabbit was shaved and a vertical incision was made approximately 5 cm in length along the thigh. The femoral vein and artery were exposed, isolated and then cannulated with a PVC catheter (17G) for the infusion of drugs and compounds. Cannulation was repeated for the femoral artery, inserting the catheter to a depth of 10 cm to ensure that the catheter reached the abdominal aorta. This arterial catheter was linked to a Gould system to record blood pressure. Samples for blood gas analysis were also taken via the arterial catheter. Systolic and diastolic pressures were measured, and the mean arterial pressure calculated using the formula (diastolic×2+systolic)÷3. Heart rate was measured via the pulse oxymeter and Po-ne-mah data acquisition software system (Ponemah Physiology Platform, Gould Instrument Systems Inc).
A ventral midline incision was made into the abdominal cavity. The incision was about 5 cm in length just above the pubis. The fat and muscle was bluntly dissected away to reveal the hypogastric nerve which runs down the body cavity. It was essential to keep close to the side curve of the pubis wall in order to avoid damaging the femoral vein and artery, which lie above the pubis. The sciatic and pelvic nerves lie deeper and were located after further dissection on the dorsal side of the rabbit. Once the sciatic nerve is identified, the pelvic nerve was easily located. The term pelvic nerve is loosely applied; anatomy books on the subject fail to identify the nerves in sufficient detail. However, stimulation of the nerve causes an increase in vaginal and clitoral blood flow, and innervation of the pelvic region. The pelvic nerve was freed away from surrounding tissue and a Harvard bipolar stimulating electrode was placed around the nerve. The nerve was slightly lifted to give some tension, then the electrode was secured in position. Approximately 1 ml of light paraffin oil was placed around the nerve and electrode. This acts as a protective lubricant to the nerve and prevents blood contamination of the electrode. The electrode was connected to a Grass S88 Stimulator. The pelvic nerve was stimulated using the following parameters:—5V, pulse width 0.5 ms, duration of stimulus 10 seconds and a frequency range of 2 to 16 Hz. Reproducible responses were obtained when the nerve was stimulated every 15-20 minutes. A frequency response curve was determined at the start of each experiment in order to determine the optimum frequency to use as a sub-maximal response, normally 4 Hz. A ventral midline incision was made, at the caudal end of the pubis, to expose the pubic area. Connective tissue was removed to expose the tunica of the clitoris, ensuring that the wall was free from small blood vessels. The external vaginal wall was also exposed by removing any connective tissue. One laser Doppler flow probe was inserted 3 cm into the vagina, so that half the probe shaft was still visible. A second probe was positioned so that it lay just above the external clitoral wall. The position of these probes was then adjusted until a signal was obtained. […]

Consider `Clc1cc(Cl)cc(COc2cncc(N3CCNCC3)n2)c1` [Example 1-N, 6′-(3,5-Dichloro-benzyloxy)-3,4,5,6-tetrahydro-2H-[1,2′]bipyrazinyl], for which the “functional behaviour at 5-HT2c” value in data set [1] is recorded as “acted as an antagonist”.
For the compound `C[C@@H]1CNCCN1c1cncc(OCc2ccccc2F)n1` [Example 1-AH, 6′-(2-Fluoro-benzyloxy)-(2R)-methyl-3,4,5,6-tetrahydro-2H-[1,2′]bipyrazinyl], the “functional behaviour at 5-HT2c” value in data set [1] is listed as “acted as an antagonist”.
The compound `COCC[C@H](CC1(C(=O)NCCCc2ccc(Cl)cc2)CCCC1)C(=O)O` (as salt: sodium) returned a melting point of 214 to 216 °C.
As to `O=C1Nc2cc(Cl)c(Cl)cc2N2CCNCC12` (stereo not shown) [8,9-dichloro-2,3,4,4a-tetrahydro-1H-pyrazino[1,2-a]quinoxalin-5(6H)-one], the “time after s.c. dosing at which potentiation was significant” value in data set [2] was 30 min. Besides, the “time potentiation remained elevated” value in data set [2] is given as “circa 1 hr”. Further, in data set [2] (anaesthetised rabbit), the “effect on pelvic-nerve stimulated (PNS) increases in vaginal and clitoral blood flow” value is reported as “potent enhancer”. Besides, the “potentiation of pelvic nerve stimulated increases in genital blood flow” value in data set [2] (anaesthetised rabbit) is “circa 35%”. Further, in data set [2] (no pelvic nerve stimulation), the “effect on basal genital blood flow in the absence of PNS” value was “no effect”. Besides, the “Pelvic nerve stimulated increases in vaginal blood flow” value in data set [2] (15 min after injection) worked out at 292 Laser Doppler units; in data set [2] (30 min after injection), 325 Laser Doppler units; in data set [2] (45 min after injection), 295 Laser Doppler units; in data set [2] (60 min after injection), 325 Laser Doppler units; in data set [2] (75 min after injection) it was 252 Laser Doppler units; in data set [2] (90 min after injection), 247 Laser Doppler units. Also, the “Unstimulated vaginal blood flow” value in data set [2] (15 min after injection) is given as 185 Laser Doppler units; in data set [2] (30 min after injection) it was 162 Laser Doppler units; in data set [2] (45 min after injection) it was 150 Laser Doppler units; in data set [2] (60 min after injection) it was 127 Laser Doppler units; in data set [2] (75 min after injection) it was 137 Laser Doppler units; in data set [2] (90 min after injection) it was 132 Laser Doppler units. For the same compound, the “Compound-induced potentiation of stimulated vaginal blood flow” value is 21% in data set [2] (15 min after injection); 34% in data set [2] (30 min after injection); 22% in data set [2] (45 min after injection); 34% in data set [2] (60 min after injection); 4% in data set [2] (75 min after injection); 2% in data set [2] (90 min after injection).
With `CN1CCN(c2cncc(OCc3cccc(Cl)c3)n2)CC1` [Example 1-AS, 6′-(3-Chloro-benzyloxy)-4-methyl-3,4,5,6-tetrahydro-2H-[1,2′]bipyrazinyl], the “functional behaviour at 5-HT2c” value in data set [1] is recorded as “acted as an antagonist”.
With `C[C@H]1CN(c2cncc(OCc3cccc(F)c3)n2)CCN1` [Example 1-AL, 6′-(3-Fluoro-benzyloxy)-(3S)-methyl-3,4,5,6-tetrahydro-2H-[1,2′]bipyrazinyl], the “functional behaviour at 5-HT2c” value in data set [1] is given as “acted as an antagonist”.
The same measure, in the same setting: as for `Clc1cccc(COc2cncc(N3CCNCC3)n2)c1Cl` [Example 1-AO, 6′-(2,3-Dichloro-benzyloxy)-3,4,5,6-tetrahydro-2H-[1,2′]bipyrazinyl], the entry is “acted as an antagonist”.
Take `CN1CCN(c2cncc(OCc3cccc(F)c3)n2)CC1` [Example 1-AT, 6′-(3-Fluoro-benzyloxy)-4-methyl-3,4,5,6-tetrahydro-2H-[1,2′]bipyrazinyl]: in data set [1], the “functional behaviour at 5-HT2c” value is recorded as “acted as an antagonist”.
`Cc1cc(C)cc(COc2cncc(N3CCNCC3)n2)c1` [Example 1-AA, 6′-(3,5-Dimethyl-benzyloxy)-3,4,5,6-tetrahydro-2H-[1,2′]bipyrazinyl]: the “functional behaviour at 5-HT2c” value in data set [1] is “acted as an antagonist”.
For the compound `CC(Oc1cncc(N2CCNCC2)n1)c1cc(F)cc(F)c1` (stereo not shown) [Example 1-Z, 6′-[1-(3,5-Difluoro-phenyl)-ethoxy]-3,4,5,6-tetrahydro-2H-[1,2′]bipyrazinyl], in data set [1], the “functional behaviour at 5-HT2c” value is listed as “acted as an antagonist”.
As to `Clc1ccc(COc2cncc(N3CCNCC3)n2)cc1` [Example 1-R, 6′-(4-Chloro-benzyloxy)-3,4,5,6-tetrahydro-2H-[1,2′]bipyrazinyl], the “functional behaviour at 5-HT2c” value in data set [1] is “acted as an antagonist”.
Consider `C[C@@H]1CN(c2cncc(OCc3cccc(Cl)c3)n2)CCN1` [Example 1-U, 6′-(3-Chloro-benzyloxy)-(3R)-methyl-3,4,5,6-tetrahydro-2H-[1,2′]bipyrazinyl], for which the “functional behaviour at 5-HT2c” value in data set [1] was “acted as an antagonist”.
Consider `Cl.Fc1ccc(CNc2cncc(N3CCNCC3)n2)cc1` [Example 4-D, (4-Fluoro-benzyl)-(3,4,5,6-tetrahydro-2H-[1,2′]bipyrazinyl-6′-yl)-amine hydrochloride salt], for which the “functional behaviour at 5-HT2c” value in data set [1] is on record as “acted as an antagonist”.
Still for that read-out and setting: to `FC(F)(F)c1cc(COc2cncc(N3CCNCC3)n2)cc(C(F)(F)F)c1` [Example 1-W, 6′-(3,5-Bis-trifluoromethyl-benzyloxy)-3,4,5,6-tetrahydro-2H-[1,2′]bipyrazinyl] belongs “acted as an antagonist”; to `C[C@H](Oc1cncc(N2CCNCC2)n1)c1ccccc1` [Example 1-AF, 6′-[(1S)-Phenyl-ethoxy]-3,4,5,6-tetrahydro-2H-[1,2′]bipyrazinyl], “acted as an antagonist”; to `C[C@@H](Oc1cncc(N2CCNCC2)n1)c1ccccc1` [Example 1-AE, 6′-[(1R)-Phenyl-ethoxy]-3,4,5,6-tetrahydro-2H-[1,2′]bipyrazinyl], “acted as an antagonist”.
Take `C[C@@H]1CN(c2cncc(OCc3cccc(Cl)c3)n2)C[C@H](C)N1` [Example 1-V, 6′-(3-Chloro-benzyloxy)-(3R,5S)-dimethyl-3,4,5,6-tetrahydro-2H-[1,2′]bipyrazinyl]: the “activity at 10 μM” value in data set [1] (10 μM) is on record as “no activity”.
Regarding `Cl.Clc1ccc(CNc2cncc(N3CCNCC3)n2)cc1` [Example 4-C, (4-Chloro-benzyl)-(3,4,5,6-tetrahydro-2H-[1,2′]bipyrazinyl-6′-yl)-amine hydrochloride salt], the “functional behaviour at 5-HT2c” value in data set [1] is listed as “acted as an antagonist”.
